Measured values as given in publication PMC5402281, “Functional, thermodynamics, structural and biological studies of in silico-identified inhibitors of Mycobacterium tuberculosis enoyl-ACP(CoA) reductase enzyme” (Scientific Reports, 2017).
Values after ≈ are worked out from the molar mass of the structure shown.

Tested on: M. tuberculosis PE-003 multidrug-resistant clinical isolate
Assay: microbe, parasite or virus in culture
Format: cell-based
Settings: Mycobacterium tuberculosis, read-out: MIC PE-003 in μM

Structure (SMILES)	MIC [µM]
Cc1ccccc1OCc1nc(-c2ccc(NC(=O)c3cccs3)cc2)no1 [Labio_16]	1.5 (≈ 0.587 µg/mL)
CCOC(=O)c1ccc2nc(C)cc(Nc3ccc(N4CCCCC4)cc3)c2c1 [Labio_17]	2.5 (≈ 0.974 µg/mL)
